Results: ChEMBL document CHEMBL1201862, “PubChem BioAssay data set” (2004)
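Exposure lasted 48 hours, with cells grown in 96-well plates and compounds tested at five concentrations. Here, GI50 denotes the concentration required for 50% inhibition of growth.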 Active and inactive are the calls of the source. No stated cut-off is given here; in the data, active = GI50 up to about 1.1 µM and inactive = higher.

Key:
Test in all cases: NCI tumour cell line growth inhibition, 48 h
[1] = test system: SR
[2] = test system: HCT-15
[3] = test system: OVCAR-5
[4] = test system: SN12C
[5] = test system: SK-MEL-5
[6] = test system: 786-0
[7] = test system: IGROV-1
[8] = test system: SK-OV-3
[9] = test system: UACC-62
[10] = test system: OVCAR-8
[11] = test system: K562
[12] = test system: MOLT-4
[13] = test system: RXF 393
[14] = test system: NCI/ADR-RES
[15] = test system: U-251
[16] = test system: NCI-H226
[17] = test system: A549
[18] = test system: OVCAR-3
[19] = test system: NCI-H522

Row | Structure (SMILES) | GI50 [1] | GI50 [2] [µM] | GI50 [3] | GI50 [4] | GI50 [5] | GI50 [6] | GI50 [7] | GI50 [8] | GI50 [9] | GI50 [10] | GI50 [11] | GI50 [12] | GI50 [13] | GI50 [14] | GI50 [15] | GI50 [16] | GI50 [17] | GI50 [18] | GI50 [19]
1 | CC(C)=C[C@@H]1O[C@H](O)[C@@H]([C@H]2CC[C@@]3(C)[C@@H]4CC[C@H]5C(C)(C)C(=O)CC[C@@]56C[C@@]46CC[C@]23C)[C@@H]1O | 9.64 µM (inactive) | 16.9 | 23.1 µM (inactive) | 19.3 µM (inactive) | 17.7 µM (inactive) | 14.3 µM (inactive) | 19.5 µM (inactive) | 16.5 µM (inactive) | 18.1 µM (inactive) | 15.4 µM (inactive) | 15.6 µM (inactive) | 14.1 µM (inactive) | 12.7 µM (inactive) | 16.7 µM (inactive) | 17 µM (inactive) | 11.7 µM (inactive) | 14.4 µM (inactive) | 13.2 µM (inactive) | 13.1 µM (inactive)
2 | CC(C)(C)OC(=O)N/C(C=O)=C\C1CCCCC1 | 17.3 µM (inactive) | 18.8 | 19.8 µM (inactive) | 19.3 µM (inactive) | 15.3 µM (inactive) | 19.9 µM (inactive) | 20.7 µM (inactive) | 30 µM (inactive) | 15.6 µM (inactive) | 16.3 µM (inactive) | 22.6 µM (inactive) | 14.8 µM (inactive) | 23.4 µM (inactive) | 18.3 µM (inactive) | 17.2 µM (inactive) | 21.2 µM (inactive) | > 100 µM (inactive) | 24.1 µM (inactive) | 45.7 µM (inactive)
3 | O/N=C1/Nc2cc(Cl)ccc2C(=S)N2CSCC12 (stereo not given) | > 100 µM (inactive) | > 100 | > 100 µM (inactive) | > 100 µM (inactive) | > 100 µM (inactive) | > 100 µM (inactive) | > 100 µM (inactive) | > 100 µM (inactive) | > 100 µM (inactive) | > 100 µM (inactive) | 87.3 µM (inactive) | > 100 µM (inactive) | > 100 µM (inactive) | > 100 µM (inactive) | > 100 µM (inactive) | > 100 µM (inactive) | > 100 µM (inactive) | > 100 µM (inactive) | > 100 µM (inactive)
4 | CCOC1OC(C)(C=C(C#N)C#N)CCC1C (stereo not given) | 22.1 µM (inactive) | 25.5 | > 85.7 µM (inactive) | 33.7 µM (inactive) | 53.8 µM (inactive) | 25.9 µM (inactive) | 10.5 µM (inactive) | > 100 µM (inactive) | 38 µM (inactive) | 27.7 µM (inactive) | 16.8 µM (inactive) | 33.3 µM (inactive) | 53.6 µM (inactive) | 35.2 µM (inactive) | 52.7 µM (inactive) | 23 µM (inactive) | 45.5 µM (inactive) | 24.5 µM (inactive) | 15.4 µM (inactive)
5 | Nc1cc2c3c(cccc3c1)NC2=O | > 100 µM (inactive) | > 100 | > 100 µM (inactive) | 95.1 µM (inactive) | 92.3 µM (inactive) | > 100 µM (inactive) | > 100 µM (inactive) | 94 µM (inactive) | 63 µM (inactive) | > 100 µM (inactive) | > 100 µM (inactive) | 24 µM (inactive) | > 100 µM (inactive) | > 100 µM (inactive) | 31.8 µM (inactive) | > 100 µM (inactive) | 69.2 µM (inactive) | > 100 µM (inactive) | 3.64 µM (inactive)
6 | O=C(CCCn1ccnc1[N+](=O)[O-])NCCn1cnc([N+](=O)[O-])n1 | > 100 µM (inactive) | > 100 | > 100 µM (inactive) | > 100 µM (inactive) | > 100 µM (inactive) | > 100 µM (inactive) | > 100 µM (inactive) | > 100 µM (inactive) | > 100 µM (inactive) | > 100 µM (inactive) | > 100 µM (inactive) | > 100 µM (inactive) | > 100 µM (inactive) | > 100 µM (inactive) | > 100 µM (inactive) | > 100 µM (inactive) | > 100 µM (inactive) | > 100 µM (inactive) | > 100 µM (inactive)
7 | CC(NC(=O)OCc1ccccc1)NC(=O)OC(C)(C)C (stereo not given) | > 100 µM (inactive) | > 100 | > 100 µM (inactive) | > 100 µM (inactive) | > 100 µM (inactive) | > 100 µM (inactive) | > 100 µM (inactive) | > 100 µM (inactive) | > 100 µM (inactive) | > 100 µM (inactive) | > 100 µM (inactive) | 84.9 µM (inactive) | 1.24 µM (inactive) | > 100 µM (inactive) | > 100 µM (inactive) | > 100 µM (inactive) | > 100 µM (inactive) | > 100 µM (inactive) | > 100 µM (inactive)
8 | CC(C)[C@@H]1CC[C@@H](C)C[C@H]1OC(=O)/C=C1/C2C=CC(O2)C1C(=O)O[C@@H]1C[C@H](C)CC[C@H]1C(C)C (stereo not given in full) | 41.7 µM (inactive) | > 100 | > 100 µM (inactive) | > 100 µM (inactive) | > 100 µM (inactive) | > 100 µM (inactive) | > 100 µM (inactive) | > 100 µM (inactive) | > 100 µM (inactive) | > 100 µM (inactive) | 51.4 µM (inactive) | 43.8 µM (inactive) | > 100 µM (inactive) | > 100 µM (inactive) | > 100 µM (inactive) | 28.4 µM (inactive) | > 100 µM (inactive) | > 100 µM (inactive) | 41.8 µM (inactive)
9 | C=Cc1ccccc1C1C(C(=O)OCC)=C(C)N=C2OC(C(=O)OC)C(=O)N21 (stereo not given) | > 100 µM (inactive) | > 100 | > 100 µM (inactive) | > 100 µM (inactive) | > 100 µM (inactive) | > 100 µM (inactive) | > 100 µM (inactive) | > 100 µM (inactive) | > 100 µM (inactive) | > 100 µM (inactive) | > 100 µM (inactive) | > 100 µM (inactive) | > 100 µM (inactive) | > 100 µM (inactive) | > 100 µM (inactive) | > 100 µM (inactive) | > 100 µM (inactive) | > 100 µM (inactive) | > 100 µM (inactive)
10 | C=C1C(O)C[C@H](OC(C)=O)[C@]2(C)C1C(OC(C)=O)[C@]1(C(C)(C)O)CC(O)C(C)=C1[C@@H](OC(=O)c1ccccc1)C2OC(C)=O (stereo not given in full) | > 10 µM (inactive) | > 10 | > 10 µM (inactive) | > 10 µM (inactive) | > 10 µM (inactive) | > 10 µM (inactive) | > 10 µM (inactive) | > 10 µM (inactive) | > 10 µM (inactive) | > 10 µM (inactive) | > 10 µM (inactive) | > 10 µM (inactive) | > 10 µM (inactive) | > 10 µM (inactive) | > 10 µM (inactive) | > 10 µM (inactive) | > 10 µM (inactive) | > 10 µM (inactive) | > 10 µM (inactive)
11 | C=C(C)C(CC=C(C)C)CC12CC(CC=C(C)C)C(C)(C)C(CC=C(C)C)(C(=O)C(Cc3ccc(O)c(O)c3)=C1O)C2=O (stereo not given) | > 100 µM (inactive) | > 100 | > 100 µM (inactive) | – | > 100 µM (inactive) | > 100 µM (inactive) | > 100 µM (inactive) | > 100 µM (inactive) | 85.3 µM (inactive) | > 100 µM (inactive) | 99.3 µM (inactive) | 50.6 µM (inactive) | > 100 µM (inactive) | > 100 µM (inactive) | > 100 µM (inactive) | > 100 µM (inactive) | > 100 µM (inactive) | > 100 µM (inactive) | > 100 µM (inactive)
12 | Cc1nc2c(O)cccc2c(=O)[nH]1 | 114 µM (inactive) | 270 | 382 µM (inactive) | 532 µM (inactive) | – | > 1000 µM (inactive) | 405 µM (inactive) | 348 µM (inactive) | 232 µM (inactive) | 437 µM (inactive) | 359 µM (inactive) | 339 µM (inactive) | 158 µM (inactive) | 548 µM (inactive) | 670 µM (inactive) | 203 µM (inactive) | 360 µM (inactive) | 542 µM (inactive) | 356 µM (inactive)
13 | O=C1C(c2c(O)[nH]c3ccc(Br)cc23)=Nc2ccccc21 | 6.73 µM (inactive) | 5.41 | 11.9 µM (inactive) | 28 µM (inactive) | 4.01 µM (inactive) | 2.13 µM (inactive) | 0.562 µM (active) | 13 µM (inactive) | 12.2 µM (inactive) | 6.78 µM (inactive) | 5.62 µM (inactive) | 18.2 µM (inactive) | 2.39 µM (inactive) | 17.7 µM (inactive) | 12.8 µM (inactive) | 15.1 µM (inactive) | 4.07 µM (inactive) | 10.6 µM (inactive) | 14.7 µM (inactive)
14 | CC(=O)c1ccc(/N=N/N2CCCC2)cc1 | > 100 µM (inactive) | > 100 | > 100 µM (inactive) | > 100 µM (inactive) | > 100 µM (inactive) | > 100 µM (inactive) | > 100 µM (inactive) | > 100 µM (inactive) | > 100 µM (inactive) | > 100 µM (inactive) | > 100 µM (inactive) | > 100 µM (inactive) | > 100 µM (inactive) | > 100 µM (inactive) | > 100 µM (inactive) | > 100 µM (inactive) | – | > 100 µM (inactive) | > 100 µM (inactive)
15 | CC(C)(C)OC(=O)n1cc(C2CNC(=O)C23CCC(=O)N3Cc2ccccc2)c2ccccc21 (stereo not given) | 32.4 µM (inactive) | – | 19.5 µM (inactive) | 16.7 µM (inactive) | 16.9 µM (inactive) | 24.7 µM (inactive) | 17.3 µM (inactive) | 26.2 µM (inactive) | 17.5 µM (inactive) | – | 41.1 µM (inactive) | 36.9 µM (inactive) | 21.9 µM (inactive) | 32.4 µM (inactive) | 18.7 µM (inactive) | 19.9 µM (inactive) | 18.7 µM (inactive) | 19.2 µM (inactive) | 17.8 µM (inactive)
